Data from publication PMC7441487 (mBio, 2020).
“Also recorded” adds a separate entry of the source. Read-outs that look alike come from different tables or passages of the source.

Legend:
SARS-CoV-2^WK-521 [1] = experiment: Immunocytochemistry, low-stringency assay (VeroE6 cells and SARS-CoV-2^WK-521); type: cell-based; details: VeroE6 cells; for Block of SARS-CoV-2^WK-521 infection (immunocytochemistry): overall statement over the concentrations tested
VeroE6 cells = experiment: Cytotoxicity, WST-8 assay (Cell Counting Kit-8); type: cell-based; details: concentrations up to 100 μM
[2] = Cytotoxicity, WST-8 assay (Cell Counting Kit-8); type: cell-based; details: African green monkey, VeroE6 cells
SARS-CoV-2^WK-521 [3] = experiment: Antiviral assay: viral RNA in culture supernatants by RNA-qPCR (RT-qPCR), VeroE6 cells; type: cell-based; details: for Selectivity index: ratio of CC50 to EC50, VeroE6 cells
SARS-CoV-2^WK-521 [4] = experiment: Immunocytochemistry, high-stringency assay (VeroE6^TMPRSS2 cells and SARS-CoV-2^WK-521); type: cell-based; details: VeroE6^TMPRSS2 cells; for Block of infectivity and cytopathic effect of SARS-CoV-2^WK-521 (immunocytochemistry): overall statement, Fig. 3B; for Observation by immunocytochemistry: 100 μM; for Antiviral effect seen by immunocytochemistry: 1 and 10 μM
HIV-1 protease = HIV-1 protease (Human immunodeficiency virus type 1 group M subtype B, UniProt P04585); experiment: Thermal stability of HIV-1 protease by differential scanning fluorimetry (control); type: binding; details: HIV-1 protease 5 μM + 5 μM compound (1:1); protease alone 54.78°C
SARS-CoV-2 M^pro = SARS-CoV-2 M^pro (Severe acute respiratory syndrome coronavirus 2, UniProt P0DTD1); experiment: M^pro molecular weight analysis with HPLC/MS (covalent binding); details: 100 μM compound, 37°C, 30 min
SARS-CoV-2^WK-521 [5] = details: VeroE6 cells; 100 μM; 3 days
SARS-CoV-2 = details: Calu-3 cells exposed to SARS-CoV-2; cited from earlier work
[6] = Severe acute respiratory syndrome coronavirus 2, Vero C1008, read-out: EC50 ±SD

| SMILES | Observation by immunocytochemistry (SARS-CoV-2^WK-521 [1]; 10 μM) | Observation by immunocytochemistry (SARS-CoV-2^WK-521 [1]; 100 μM) | Block of SARS-CoV-2^WK-521 infection (immunocytochemistry) (SARS-CoV-2^WK-521 [1]) | CC50 at 3 days [2] [µM] | EC50 (SARS-CoV-2^WK-521 [3]; [6]) [µM] | Block of infectivity and cytopathic effect of SARS-CoV-2^WK-521 (immunocytochemistry) (SARS-CoV-2^WK-521 [4]) | Selectivity index (SARS-CoV-2^WK-521 [3]) | Observation by immunocytochemistry (SARS-CoV-2^WK-521 [4]) | further results |
| --- | --- | --- | --- | --- | --- | --- | --- | --- | --- |
| CCN(CC)CCCC(C)Nc1ccnc2cc(Cl)ccc12 (stereo not drawn) [Chloroquine, chloroquine] | slightly block infectivity | almost all the cells were shed from the wells | failed to block the infectivity | – | – | – | – | – | Observation by immunocytochemistry (SARS-CoV-2^WK-521 [1]; 100 μM, listed as chloroquine): almost all VeroE6 cells were lost |
| NC(=O)c1nc(F)c[nH]c1=O [Favipiravir, favipiravir] | – | – | failed to block SARS-CoV-2 infection | > 100 | > 100 | failed to block the infection | – | – | Cytotoxicity (in words) (VeroE6 cells): nontoxic at all concentrations tested |
| CC(C)CN(C[C@@H](O)[C@H](Cc1cc(F)cc(F)c1)NC(=O)O[C@H]1C2COC3OCC1C3C2)S(=O)(=O)c1ccc2nc(NC3CC3)sc2c1 (stereo partly drawn) [GRL-142] | – | – | – | – | – | – | – | – | Tm of HIV-1 protease (HIV-1 protease): 87.13 °C |
| C=CCn1ccc2c(C(=O)Oc3cncc(Cl)c3)cccc21 [GRL-0820] | – | – | permitted viral breakthrough | > 100 | 23 ± 5 | potently blocked; also recorded: permitted viral breakthrough | >4.3 | viral breakthrough had occurred | EC50 (SARS-CoV-2^WK-521 [3]; Severe acute respiratory syndrome coronavirus 2, Vero C1008, read-out: Anti-SARS-CoV-2 EC50): 15 ± 18 µM; Increase of the mass of M^pro (SARS-CoV-2 M^pro): 183.85 amu; Average mass of the major M^pro species with compound (SARS-CoV-2 M^pro; TOF MS): 34,037.21 |
| O=C(Oc1cncc(Cl)c1)c1cccc2[nH]ccc12 [GRL-0920] | further suppression of viral replication | completely blocked; also recorded: complete | completely blocked the infectivity | > 100 | 8.6 ± 2.8 | potently blocked; also recorded: completely blocked | – | essentially no infected cells seen | Protection of virus-exposed cells (light microscopy) (SARS-CoV-2^WK-521 [5]): appeared to be protected |
| CCN(CCO)CCCC(C)Nc1ccnc2cc(Cl)ccc12 (stereo not drawn) [Hydroxychloroquine, hydroxychloroquine] | slightly block infectivity | almost all the cells were shed from the wells; also recorded: virtually no cells were left | did not exert significant antiviral activity; also recorded: failed to block the infectivity | > 100 | 5.1 ± 3.4 | – | >20 | – | Cytotoxicity (in words) (VeroE6 cells): nontoxic at up to 100 μM |
| Cc1cccc(C)c1OCC(=O)N[C@@H](Cc1ccccc1)[C@@H](O)C[C@H](Cc1ccccc1)NC(=O)[C@H](C(C)C)N1CCCNC1=O [Lopinavir, lopinavir] | – | – | failed to block SARS-CoV-2 infection | 51 ± 5 | 19 ± 8 | failed to block the infection | 2.7 | most of the cells were lost | Antiviral effect seen by immunocytochemistry (SARS-CoV-2^WK-521 [4]): no detectable antiviral activity |
| N=C(N)c1ccc2cc(OC(=O)c3ccc(N=C(N)N)cc3)ccc2c1 [Nafamostat, nafamostat] | – | – | inactive against the virus | > 100 | – | – | – | – | Cytotoxicity seen in immunocytochemistry (SARS-CoV-2^WK-521 [1]): did not exert significant toxicity; also recorded: not significantly cytotoxic; Block of SARS-CoV-2^WK-521 infection (immunocytochemistry) (SARS-CoV-2^WK-521 [1]; listed as nafamostat): did not exert significant antiviral activity; also recorded: failed to block SARS-CoV-2 infection; EC50 (SARS-CoV-2): 0.005 µM; Cytotoxicity (in words) (VeroE6 cells): nontoxic at all concentrations tested |
| Cc1c(O)cccc1C(=O)N[C@@H](CSc1ccccc1)[C@H](O)CN1C[C@H]2CCCC[C@H]2C[C@H]1C(=O)NC(C)(C)C [Nelfinavir, nelfinavir] | – | – | failed to block SARS-CoV-2 infection | 53 ± 8 | 3.1 | failed to block the infection | 17 | most of the cells were lost | Antiviral effect seen by immunocytochemistry (SARS-CoV-2^WK-521 [4]): no detectable antiviral activity |
| CC(=O)Oc1ccccc1C(=O)Nc1ncc([N+](=O)[O-])s1 [Nitazoxanide, nitazoxanide] | – | only a few nuclei remained | did not block the infectivity | 88 ± 3 | 31 ± 6 | – | 2.8 | – | Observation by immunocytochemistry (SARS-CoV-2^WK-521 [1]; 1 and 10 μM): did not exert activity against the virus |
| CCC(CC)COC(=O)[C@H](C)N[P@](=O)(OC[C@H]1O[C@@](C#N)(c2ccc3c(N)ncnn23)[C@H](O)[C@@H]1O)Oc1ccccc1 [Remdesivir, remdesivir] | further suppression of viral replication | nearly complete | significantly blocked SARS-CoV-2 infection but allowed viral breakthrough | > 100 | 1.2 ± 0.06 | potently blocked; also recorded: permitted viral breakthrough | >83 | essentially no infected cells seen | Protection of virus-exposed cells (light microscopy) (SARS-CoV-2^WK-521 [5]): appeared to be protected |
